The structures appear in SMILES notation. Structures can show the parent of a compound that is named as a salt.

In the experiment the target is T1, hCaV2.2 (Homo sapiens, UniProt Q00975).
T1 construct: expressed in transfected cells; plasmids pCIN5-hCaV2.2, pCIH-hCaV β3, pCIP-α2δ1
T1 sequence (Q00975 whole entry): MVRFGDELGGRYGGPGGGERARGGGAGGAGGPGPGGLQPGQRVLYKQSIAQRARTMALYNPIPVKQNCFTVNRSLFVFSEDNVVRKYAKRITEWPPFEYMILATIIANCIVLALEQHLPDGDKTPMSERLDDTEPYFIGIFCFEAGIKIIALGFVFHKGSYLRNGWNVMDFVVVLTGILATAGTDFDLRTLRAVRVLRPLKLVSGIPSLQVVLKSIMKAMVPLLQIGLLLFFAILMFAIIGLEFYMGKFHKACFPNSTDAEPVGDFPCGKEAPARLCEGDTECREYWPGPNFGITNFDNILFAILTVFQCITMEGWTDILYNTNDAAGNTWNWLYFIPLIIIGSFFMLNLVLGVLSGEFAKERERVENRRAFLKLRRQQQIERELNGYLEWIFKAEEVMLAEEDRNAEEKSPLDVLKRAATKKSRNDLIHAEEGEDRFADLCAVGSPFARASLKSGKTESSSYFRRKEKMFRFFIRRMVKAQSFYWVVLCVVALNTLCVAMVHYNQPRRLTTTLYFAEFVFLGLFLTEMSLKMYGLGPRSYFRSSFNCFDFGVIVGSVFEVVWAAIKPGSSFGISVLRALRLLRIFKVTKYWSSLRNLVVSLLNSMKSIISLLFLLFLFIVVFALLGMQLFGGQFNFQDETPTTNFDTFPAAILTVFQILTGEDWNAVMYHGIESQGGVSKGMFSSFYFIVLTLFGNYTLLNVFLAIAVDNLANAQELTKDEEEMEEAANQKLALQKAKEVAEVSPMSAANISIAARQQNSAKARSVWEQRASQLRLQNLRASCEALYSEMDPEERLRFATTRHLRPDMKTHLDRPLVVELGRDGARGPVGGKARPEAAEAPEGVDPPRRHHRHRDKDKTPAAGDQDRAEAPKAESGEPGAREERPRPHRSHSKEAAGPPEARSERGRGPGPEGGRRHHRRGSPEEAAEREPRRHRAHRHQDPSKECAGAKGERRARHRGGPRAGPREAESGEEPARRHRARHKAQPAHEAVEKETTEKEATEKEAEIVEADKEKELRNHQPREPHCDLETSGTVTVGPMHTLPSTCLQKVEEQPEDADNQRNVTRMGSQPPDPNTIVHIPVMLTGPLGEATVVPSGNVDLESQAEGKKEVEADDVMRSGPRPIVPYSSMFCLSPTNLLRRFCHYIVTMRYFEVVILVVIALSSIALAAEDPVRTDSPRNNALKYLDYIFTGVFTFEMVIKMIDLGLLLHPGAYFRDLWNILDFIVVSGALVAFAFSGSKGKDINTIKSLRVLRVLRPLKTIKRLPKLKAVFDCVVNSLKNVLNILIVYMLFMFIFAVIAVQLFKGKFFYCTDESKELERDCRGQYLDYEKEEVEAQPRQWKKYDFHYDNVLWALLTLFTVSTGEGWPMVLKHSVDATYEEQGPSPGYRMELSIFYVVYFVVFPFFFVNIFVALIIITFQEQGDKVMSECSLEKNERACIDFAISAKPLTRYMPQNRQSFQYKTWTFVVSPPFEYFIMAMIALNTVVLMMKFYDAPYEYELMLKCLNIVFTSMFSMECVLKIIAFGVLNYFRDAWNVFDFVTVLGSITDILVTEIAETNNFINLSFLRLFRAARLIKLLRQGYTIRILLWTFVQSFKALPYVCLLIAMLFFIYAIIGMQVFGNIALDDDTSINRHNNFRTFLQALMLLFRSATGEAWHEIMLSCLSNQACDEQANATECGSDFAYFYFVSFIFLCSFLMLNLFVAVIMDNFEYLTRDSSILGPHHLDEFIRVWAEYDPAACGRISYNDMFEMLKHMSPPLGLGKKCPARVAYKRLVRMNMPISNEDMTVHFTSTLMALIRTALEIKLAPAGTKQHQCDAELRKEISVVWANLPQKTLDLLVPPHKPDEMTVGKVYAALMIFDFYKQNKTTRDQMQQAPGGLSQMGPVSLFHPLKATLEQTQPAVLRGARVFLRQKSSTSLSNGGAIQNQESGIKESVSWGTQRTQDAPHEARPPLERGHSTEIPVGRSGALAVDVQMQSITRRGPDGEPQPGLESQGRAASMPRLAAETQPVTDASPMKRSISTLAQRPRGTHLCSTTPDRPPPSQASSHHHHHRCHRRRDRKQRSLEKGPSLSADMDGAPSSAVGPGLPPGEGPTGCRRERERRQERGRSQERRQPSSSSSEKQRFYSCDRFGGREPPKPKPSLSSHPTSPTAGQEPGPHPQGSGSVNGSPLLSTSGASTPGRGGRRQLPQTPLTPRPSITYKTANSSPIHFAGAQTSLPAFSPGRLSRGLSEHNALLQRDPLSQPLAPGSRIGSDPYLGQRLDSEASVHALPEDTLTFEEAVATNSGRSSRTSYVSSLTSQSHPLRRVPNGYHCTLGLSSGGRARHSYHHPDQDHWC
In words: hCaV2.2 assay, IonWorks planar array electrophysiology in stably transfected HEK293 cells. The settings on record: current elicited by the 1st depolarising pulse inhibited by 50%; HEK293 cells expressing human CaV2.2 alpha/beta3/alpha2delta1; read-out: mean pIC50 (tonic pIC50) (converted). It counts as cell-based. As for the experimental part:
Compounds of the invention may be tested for in vitro biological activity in the hCaV2.2 assay in accordance with the following studies:
Stable cell lines expressing the human CaV2.2 α (als) subunit, along with the human […] and α2δ1 auxiliary subunits were created following sequential transfection and selection of human embryonic kidney (HEK293) cells. HEK293 cells were cultured in Dulbecco's modified Eagles media/F12 media (Invitrogen, Cat #041-95750V) containing 10% foetal bovine serum, with added L-glutamine (2 mM; Invitrogen, Cat #25030-024) and non-essential amino acids (5%; Invitrogen, Cat #11140-035). Initially HEK293 cells were transfected with two plasmid vectors for expression of the hCaV2.2 α subunit (pCIN5-hCaV2.2 which carries a neomycin resistance marker) and the hCaV β3 subunit (pCIH-hCaV β3 which carries a hygromycin resistance marker). Clonal cell lines were isolated following selection in media supplemented with 0.4 mg ml^−1 Geneticin G418 (Invitrogen, Cat #10131-027) and 0.1 mg ml^1 hygromycin (Invitrogen, Cat #10687-010). These clonal cell lines were assessed for Cav2.2α/β3-mediated current expression using the IonWorks planar array electrophysiology technology (described below). A clonal line was identified that gave a reasonable level of functional Cav2.2α/β3 current expression. This cell line was transfected with a plasmid vector for expression of the human […] subunit (pCIP-α2δ1 which carries a puromycin resistance marker) and clonal cell lines isolated following selection in media containing 0.62 μg ml^−1 puromycin (Sigma, Cat #P-7255), in addition to 0.4 mg ml^−1 Geneticin G418 and 0.1 mg ml^−1 hygromycin. Several cell lines were identified that gave robust levels of Cav2.2α/β3/α2δ1-mediated current expression and one of these was selected for compound profiling. Expression of all three subunits within this cell line was continuously maintained by the inclusion of G418 (0.4 mg ml^−1), hygromycin (0.1 mg ml^−1) and puromycin (0.62 μg ml^−1). Cells were maintained at 37° C. in a humidified environment containing 5% CO2 in air. Cells were liberated from the T175 culture flasks for passage and harvesting using TrpLE (Invitrogen, Cat #12604-013).
Cells were grown to 30-60% confluence in T175 flasks and maintained at 30° C. for 24 hrs prior to recording. Cells were lifted by removing the growth media, washing with Ca^2+ free PBS (Invitrogen, Cat #14190-094) and incubating with 3 ml of warmed (37° C.) TrpLE (Invitrogen, Cat #12604-013) for 6 minutes. Lifted cells were suspended in 10 ml of extracellular buffer. Cell suspension was then placed into a 15 ml tube and centrifuged for 2 minutes at 700 rpm. After centrifugation, the supernatant was removed and the cell pellet was resuspended in 4.5 ml of extracellular solution.
Currents were recorded at room temperature (21-23° C.) using the IonWorks planar array electrophysiology technology (Molecular Devices Corp.). Stimulation protocols and data acquisition were carried out using a microcomputer (Dell Pentium 4). In order to determine planar electrode hole resistances (Rp), a 10 mV, 160 ms potential difference was applied across each hole. These measurements were performed before cell addition. After cell addition a seal test was performed prior to antibiotic (amphotericin) circulation to achieve intracellular access. Leak subtraction was conducted in all experiments by applying a 160 ms hyperpolarizing (10 mV) prepulse 200 ms before the test pulses to measure leak conductance. Test pulses stepping from the holding potential (VH) of −90 mV to +10 mV were applied for 20 ms and repeated 10 times at a frequency of 10 Hz. In all experiments, the test pulse protocol was performed in the absence (pre-read) and presence (post-read) of a compound. Pre- and post-reads were separated by a compound addition followed by a 3-3.5 min incubation.
The intracellular solution contained the following (in mM): K-gluconate 120, KCl 20 mM, MgCl2 5, EGTA 5, HEPES 10, adjusted to pH 7.3. […]
On the technique in general: In patch-clamp work, channel activity is measured electrically.
`Cc1ncccc1C(=O)N1CCN(S(=O)(=O)c2ccc(C(F)(F)F)cc2)[C@@H](C)C1` [Example 12, (2S)-2-Methyl-4-[(2-methyl-3-pyridinyl)carbonyl]-1-{[4-(trifluoromethyl)phenyl]sulfonyl}piperazine formic acid salt]: the IC50 is at least 31.6 µM. Turning to `Cc1cc(C#N)ccc1S(=O)(=O)N1CCN(C(=O)c2ccc(N3CCC3)nc2C)[C@@H](C)C1` [Example 40, 4-[((38)-4-{[6-(1-Azetidinyl)-2-methyl-3-pyridinyl]carbonyl}-3-methyl-1-piperazinyl)sulfonyl]-3-methylbenzonitrile hydrochloride], the IC50 was at least 31.6 µM.

`O=C(c1ccc(N2CCCC2)nc1)N1CCN(S(=O)(=O)c2ccc(C(F)(F)F)cc2)CC1` [Example 69, 1-{[6-(1-pyrrolidinyl)-3-pyridinyl]carbonyl}-4-{[4-(trifluoromethyl)phenyl]sulfon-yl}piperazine]: the IC50 is at least 31.6 µM.

For the compound `Cc1ccc(C(=O)N2CCN(S(=O)(=O)c3ccc(OC(F)F)cc3)CC2)cn1` [Example 73, 1-({4-[(difluoromethyl)oxy]phenyl}sulfonyl)-4-[(6-methyl-3-pyridinyl)carbonyl]piperazine], the IC50 was at least 31.6 µM.

On to `CNc1ccc(C(=O)N2CCN(S(=O)(=O)c3ccc(C(F)(F)F)cc3)C[C@@H]2C)cn1` [Example 44, Methyl-5-[((2S)-2-methyl-4-{[4-(trifluoromethyl)phenyl]sulfonyl}-1-piperazinyl)carbonyl]-2-pyridinamine hydrochloride], for which the IC50 was at least 10 µM. The same measure for `Cc1ncccc1C(=O)N1CCN(S(=O)(=O)c2ccc(OC(F)(F)F)cc2)C[C@@H]1C` [Example 64, (2S)-2-methyl-1-[(2-methyl-3-pyridinyl)carbonyl]-4-({4-[(trifluoromethyl)oxy]phenyl}sulfonyl)piperazine]: at least 31.6 µM; for `Cc1ccc(C(=O)N2CCN(S(=O)(=O)c3ccc(C#N)cc3C)[C@@H](C)C2)cn1` [Example 52, 3-methyl-4-({(2S)-2-methyl-4-[(6-methyl-3-pyridinyl)carbonyl]-1-piperazinyl}sulfonyl)benzonitrile hydrochloride]: at least 31.6 µM; for `Cc1ncccc1C(=O)N1CCN(S(=O)(=O)c2ccc(OC(F)(F)F)cc2)C[C@H]1C` [Example 58, (2R)-2-methyl-1-[(2-methyl-3-pyridinyl)carbonyl]-4-({4-[(trifluoromethyl)oxy]phenyl}sulfonyl)piperazine]: at least 31.6 µM. `Cc1cc(C#N)ccc1S(=O)(=O)N1CCN(C(=O)c2ccc(N(C)C)nc2)[C@@H](C)C1` [Example 71, 4-[((3S)-4-{[6-(dimethylamino)-3-pyridinyl]carbonyl}-3-methyl-1-piperazinyl)sulfonyl]-3-methylbenzonitrile]: the IC50 was at least 31.6 µM.

On to `COc1ccc(C(=O)N2CCN(S(=O)(=O)c3ccc(C(F)(F)F)cc3)C[C@@H]2C)cn1` [Example 14, (2S)-2-Methyl-1-{[6-(methyloxy)-3-pyridinyl]carbonyl}-4-{[4-(trifluoromethyl)phenyl]sulfonyl}piperazine], for which the IC50 is at least 31.6 µM. Turning to `O=C(c1ccc(N2CCOCC2)nc1)N1CCN(S(=O)(=O)c2ccc(C(F)(F)F)cc2)CC1` [Example 6, 4-{5-[(4-{[4-(Trifluoromethyl)phenyl]sulfonyl}-1-piperazinyl)carbonyl]-2-pyridinyl}morpholine], the IC50 is at least 31.6 µM. For `Cc1ccc(C(F)(F)F)cc1S(=O)(=O)N1CCN(C(=O)c2cccnc2C)CC1` [Example 62, 1-[(2-methyl-3-pyridinyl)carbonyl]-4-{[2-methyl-5-(trifluoromethyl)phenyl]sulfon-yl}piperazine], the IC50 is at least 31.6 µM.

With `Cc1ccc(C(=O)N2CCN(S(=O)(=O)c3ccc(OC(F)F)cc3)C[C@@H]2C)cn1` [Example 22, (2S)-4-({4-[(Difluoromethyl)oxy]phenyl}sulfonyl)-2-methyl-1-[(6-methyl-3-pyridinyl)carbonyl]piperazine], the IC50 was at least 31.6 µM.

(Values after patent US8536183B2, “3-pyridylcarbonyl-piperazinylsulfonyl derivatives” (Convergence Pharmaceuticals Limited, priority 2008, dated 2013).)
